Molecular target: firefly luciferase (FLuc) (Photinus pyralis, UniProt P08659)
Test: Thermal shift profiles (Thermofluor assay), FLuc;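 as to Thermofluor FLuc, No ATP: normalized first derivative of fluorescence (dF/dT) at the stated temperature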
Type: binding
Design: unit of the concentration uncertain
Conditions: compound 100 (unit uncertain); for Thermofluor FLuc, ATP: ATP (2 (unit uncertain))

Sequence of firefly luciferase (FLuc) (P08659 whole entry): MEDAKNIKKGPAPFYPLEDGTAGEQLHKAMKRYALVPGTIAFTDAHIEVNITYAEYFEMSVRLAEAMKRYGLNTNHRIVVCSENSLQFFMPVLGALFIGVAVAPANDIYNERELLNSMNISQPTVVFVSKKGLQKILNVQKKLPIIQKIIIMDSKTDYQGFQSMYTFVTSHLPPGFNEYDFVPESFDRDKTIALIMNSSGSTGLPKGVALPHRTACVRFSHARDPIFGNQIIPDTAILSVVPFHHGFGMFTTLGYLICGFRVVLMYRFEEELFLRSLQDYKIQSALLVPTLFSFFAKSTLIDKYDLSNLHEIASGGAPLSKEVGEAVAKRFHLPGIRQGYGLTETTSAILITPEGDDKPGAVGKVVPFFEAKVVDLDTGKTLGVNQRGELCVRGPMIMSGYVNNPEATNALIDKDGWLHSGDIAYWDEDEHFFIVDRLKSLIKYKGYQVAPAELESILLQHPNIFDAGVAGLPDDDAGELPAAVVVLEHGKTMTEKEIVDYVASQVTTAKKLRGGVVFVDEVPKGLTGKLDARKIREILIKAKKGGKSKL

CC(CNC(=O)C1CCN(C(=O)c2ncn3c2COC(c2ccccc2)C3)CC1)c1ccccc1 (centres unmarked) [NCGC 00449795]
Thermofluor FLuc, No ATP (20.000 °C): 0.224
Thermofluor FLuc, ATP (20.000 °C): 0.781
Thermofluor FLuc, No ATP (20.993 °C): 0.114
Thermofluor FLuc, ATP (20.993 °C): 0.794
Thermofluor FLuc, No ATP (21.987 °C): 0.126
Thermofluor FLuc, ATP (21.987 °C): 0.808
Thermofluor FLuc, No ATP (22.980 °C): 0.133
Thermofluor FLuc, ATP (22.980 °C): 0.818
Thermofluor FLuc, No ATP (23.974 °C): 0.087
Thermofluor FLuc, ATP (23.974 °C): 0.824
Thermofluor FLuc, No ATP (24.967 °C): 0.106
Thermofluor FLuc, ATP (24.967 °C): 0.824
Thermofluor FLuc, No ATP (25.960 °C): 0.064
Thermofluor FLuc, ATP (25.960 °C): 0.818
Thermofluor FLuc, No ATP (26.954 °C): 0.085
Thermofluor FLuc, ATP (26.954 °C): 0.807
Thermofluor FLuc, No ATP (27.947 °C): 0.040
Thermofluor FLuc, ATP (27.947 °C): 0.794
Thermofluor FLuc, No ATP (28.940 °C): 0.026
Thermofluor FLuc, ATP (28.940 °C): 0.78
Thermofluor FLuc, No ATP (29.934 °C): 0.058
Thermofluor FLuc, ATP (29.934 °C): 0.768
Thermofluor FLuc, No ATP (30.927 °C): 0.042
Thermofluor FLuc, ATP (30.927 °C): 0.757
Thermofluor FLuc, No ATP (31.921 °C): 0.056
Thermofluor FLuc, ATP (31.921 °C): 0.744
Thermofluor FLuc, No ATP (32.914 °C): 0.053
Thermofluor FLuc, ATP (32.914 °C): 0.724
Thermofluor FLuc, No ATP (33.907 °C): 0.025
Thermofluor FLuc, ATP (33.907 °C): 0.688
Thermofluor FLuc, No ATP (34.901 °C): 0.000
Thermofluor FLuc, ATP (34.901 °C): 0.633
Thermofluor FLuc, No ATP (35.894 °C): 0.005
Thermofluor FLuc, ATP (35.894 °C): 0.557
Thermofluor FLuc, No ATP (36.887 °C): 0.023
Thermofluor FLuc, ATP (36.887 °C): 0.463
Thermofluor FLuc, No ATP (37.881 °C): 0.061
Thermofluor FLuc, ATP (37.881 °C): 0.358
Thermofluor FLuc, No ATP (38.874 °C): 0.092
Thermofluor FLuc, ATP (38.874 °C): 0.252
Thermofluor FLuc, No ATP (39.868 °C): 0.154
Thermofluor FLuc, ATP (39.868 °C): 0.156
Thermofluor FLuc, No ATP (40.861 °C): 0.218
Thermofluor FLuc, ATP (40.861 °C): 0.078
Thermofluor FLuc, No ATP (41.854 °C): 0.347
Thermofluor FLuc, ATP (41.854 °C): 0.026
Thermofluor FLuc, No ATP (42.848 °C): 0.433
Thermofluor FLuc, ATP (42.848 °C): 0
Thermofluor FLuc, No ATP (43.841 °C): 0.514
Thermofluor FLuc, ATP (43.841 °C): 0
Thermofluor FLuc, No ATP (44.835 °C): 0.555
Thermofluor FLuc, ATP (44.835 °C): 0.021
Thermofluor FLuc, No ATP (45.828 °C): 0.658
Thermofluor FLuc, ATP (45.828 °C): 0.057
Thermofluor FLuc, No ATP (46.821 °C): 0.723
Thermofluor FLuc, ATP (46.821 °C): 0.105
Thermofluor FLuc, No ATP (47.815 °C): 0.793
Thermofluor FLuc, ATP (47.815 °C): 0.162
Thermofluor FLuc, No ATP (48.808 °C): 0.830
Thermofluor FLuc, ATP (48.808 °C): 0.225
Thermofluor FLuc, No ATP (50.795 °C): 0.929
Thermofluor FLuc, ATP (50.795 °C): 0.362
Thermofluor FLuc, No ATP (51.788 °C): 0.936
Thermofluor FLuc, ATP (51.788 °C): 0.434
Thermofluor FLuc, ATP (52.782 °C): 0.507
Thermofluor FLuc, No ATP (53.775 °C): 1.000
Thermofluor FLuc, ATP (53.775 °C): 0.578
Thermofluor FLuc, No ATP (54.768 °C): 0.997
Thermofluor FLuc, ATP (54.768 °C): 0.643
Thermofluor FLuc, No ATP (55.762 °C): 0.999
Thermofluor FLuc, ATP (55.762 °C): 0.699
Thermofluor FLuc, No ATP (56.755 °C): 0.989
Thermofluor FLuc, ATP (56.755 °C): 0.743
Thermofluor FLuc, No ATP (57.748 °C): 0.966
Thermofluor FLuc, ATP (57.748 °C): 0.774
Thermofluor FLuc, No ATP (58.742 °C): 0.936
Thermofluor FLuc, ATP (58.742 °C): 0.793
Thermofluor FLuc, No ATP (59.735 °C): 0.945
Thermofluor FLuc, ATP (59.735 °C): 0.802
Thermofluor FLuc, No ATP (60.729 °C): 0.960
Thermofluor FLuc, ATP (60.729 °C): 0.805
Thermofluor FLuc, No ATP (61.722 °C): 0.919
Thermofluor FLuc, ATP (61.722 °C): 0.804
Thermofluor FLuc, No ATP (62.715 °C): 0.915
Thermofluor FLuc, ATP (62.715 °C): 0.801
Thermofluor FLuc, No ATP (63.709 °C): 0.911
Thermofluor FLuc, ATP (63.709 °C): 0.797
Thermofluor FLuc, No ATP (65.695 °C): 0.892
Thermofluor FLuc, ATP (65.695 °C): 0.793
Thermofluor FLuc, No ATP (66.689 °C): 0.889
Thermofluor FLuc, ATP (66.689 °C): 0.799
Thermofluor FLuc, No ATP (68.676 °C): 0.909
Thermofluor FLuc, ATP (68.676 °C): 0.827
Thermofluor FLuc, No ATP (69.669 °C): 0.830
Thermofluor FLuc, ATP (69.669 °C): 0.847
Thermofluor FLuc, No ATP (70.662 °C): 0.839
Thermofluor FLuc, ATP (70.662 °C): 0.865
Thermofluor FLuc, No ATP (71.656 °C): 0.811
Thermofluor FLuc, ATP (71.656 °C): 0.881
Thermofluor FLuc, No ATP (72.649 °C): 0.810
Thermofluor FLuc, ATP (72.649 °C): 0.893
Thermofluor FLuc, No ATP (73.643 °C): 0.758
Thermofluor FLuc, ATP (73.643 °C): 0.901
Thermofluor FLuc, No ATP (74.636 °C): 0.788
Thermofluor FLuc, ATP (74.636 °C): 0.906
Thermofluor FLuc, No ATP (75.629 °C): 0.714
Thermofluor FLuc, ATP (75.629 °C): 0.91

— PMC12064818, “A general assay platform to study protein pharmacology using ligand-dependent structural dynamics” (Nature Communications, 2025)
